This is an account of results in US9232796B2, “Herbicidal compositions comprising 4-amino-3-chloro-5-fluoro-6-(4-chloro-2-fluoro-3-methoxyphenyl) pyridine-2-carboxylic acid or a derivative thereof and acetyl-CoA carboxylase (ACCase) inhibitors” (DOW AGROSCIENCES LLC, priority 2012, dated 2016).

One assay concerns CYPDI. Briefly: Example I postemergence foliar-applied, greenhouse, direct seeded rice weeds. The note with it: 4.38 gae/ha. The class given is in vivo, Cyperus difformis L. The text has this:
Seeds or nutlets of the desired test plant species were planted in a soil matrix prepared by mixing a loam or sandy loam soil (e.g., 28.6 percent silt, 18.8 percent clay, and 52.6 percent sand, with a pH of about 5.8 and an organic matter content of about 1.8 percent) and calcareous grit in an 80 to 20 ratio. The soil matrix was contained in plastic pots with a volume of 1 quart and a surface area of 83.6 square centimeters (cm^2). When required to ensure good germination and healthy plants, a fungicide treatment and/or other chemical or physical treatment was applied. The plants were grown for 8-22 days in a greenhouse with an approximate 14 hr. photoperiod which was maintained at about 29° C. during the day and 26° C. during the night. Nutrients (Peters Excel® 15-5-15 5-Ca 2-Mg and iron chelate) were applied in the irrigation solution as needed and water was added on a regular basis. Supplemental lighting was provided with overhead metal halide 1000-Watt lamps as necessary. The plants were employed for testing when they reached the first through fourth true leaf stage.
Treatments consisted of the acid or esters of 4-amino-3-chloro-5-fluoro-6-(4-chloro-2-fluoro-3-methoxy-phenyl)pyridine-2-carboxylic acid (Compound A), each formulated as an SC (suspension concentrate), and various herbicidal components alone and in combination.
Other herbicidal components were applied on an acid equivalent (ae) or active ingredient (ai) basis and included acetyl coA carboxylase (ACCase)-inhibiting herbicides (cyclohexanedione and aryloxyphenoxypropionate chemical classes) cyhalofop-butyl formulated as Clincher® SF (285 gr ai/L EC), diclofop-methyl formulated as Hoelon® 3EC, fenoxaprop-p-ethyl+isoxadifen-ethyl formulated as RiceStar® HT (0.58 lb./gal EC), fenoxaprop-p-ethyl+mefenpyr diethyl formulated as Puma® IEC, metamifop formulated as Metamifop EC, haloxyfop-methyl formulated as Gallant Super®, fluazifop-p-butyl formulated as Fusilade® DX, quizalofop-p-ethyl formulated as Assure® II, profoxydim formulated as Aura® 20EC, clethodim applied as Intensity®, sethoxydim formulated as Poast®, and tralkoxydim formulated as Achieve®.
Treatment requirements were calculated based upon the rates being tested, the concentration of active ingredient or acid equivalent in the formulation, and a 12 mL application volume at a rate of 187 L/ha.
For treatments comprised of formulated compounds, measured amounts of compounds were placed individually in 25 mL glass vials and diluted in a volume of 1.25% (v/v) Agri-Dex® crop oil concentrated to obtain 12× stock solutions. […] Application solutions were prepared by adding an appropriate amount of each stock solution (e.g., 1 mL) and diluted to the appropriate final concentrations with the addition of 10 mL of an aqueous mixture of 1.25% (v/v) crop oil concentrate so that the final spray solutions contained 1.25+/−0.05% (v/v) crop oil concentrate.
All stock solutions and applications solutions were visually inspected for compound compatibility prior to application. […]
The treated plants and control plants were placed in a greenhouse as described above and watered by sub-irrigation to prevent wash-off of the test compounds. After approximately 3 weeks, the condition of the test plants as compared with that of the untreated plants was determined visually and scored on a scale of 0 to 100 percent where 0 corresponds to no injury or growth inhibition and 100 corresponds to complete kill. […]

A further assay concerns ALOMY. Briefly: Example IV postemergence foliar-applied, greenhouse, cereal crops weeds. It is filed as in vivo, Alopecurus myosuroides Huds. As for the experimental part:
(§1) Seeds of the desired test plant species were planted in Sun Gro MetroMix® 306 planting mixture, which typically has a pH of 6.0 to 6.8 and an organic matter content of about 30 percent, in plastic pots with a surface area of 103.2 square centimeters (cm^2). When required to ensure good germination and healthy plants, a fungicide treatment and/or other chemical or physical treatment was applied. The plants were grown for 7-36 days in a greenhouse with an approximate 14 hour photoperiod which was maintained at about 18° C. during the day and about 17° C. during the night. Nutrients and water were added on a regular basis and supplemental lighting was provided with overhead metal halide 1000-Watt lamps as necessary. The plants were employed for testing when they reached the second or third true leaf stage.
(§2) Treatments consisted of the benzyl ester of 4-amino-3-chloro-5-fluoro-6-(4-chloro-2-fluoro-3-methoxy-phenyl)pyridine-2-carboxylic acid (Compound A), formulated as an SC, a second cereal herbicide alone and then both in combination.
(§3) Other herbicidal components were applied on an active ingredient basis and included acetyl-CoA carboxylase (ACCase)-inhibiting herbicides clodinafop-propargyl, fenoxaprop-P-ethyl, pinoxaden and tralkoxydim.
(§4) Measured aliquots of benzyl ester of 4-amino-3-chloro-5-fluoro-6-(4-chloro-2-fluoro-3-methoxy-phenyl)pyridine-2-carboxylic acid (Compound A) were placed in 25 milliliter (mL) glass vials and diluted in a volume of 1.25% (v/v) Agri-Dex® crop oil concentrate to obtain stock solutions. Compound requirements are based upon a 12 mL application volume at a rate of 187 liters per hectare (L/ha). Spray solutions of the second cereal herbicide and experimental compound mixtures were prepared by adding the stock solutions to the appropriate amount of dilution solution to form 12 mL spray solution with active ingredients in two- and three-way combinations. Formulated compounds were applied to the plant material with an overhead Mandel track sprayer equipped with an 8002E nozzle calibrated to deliver 187 L/ha over an application area of 0.503 square meters (m^2) at a spray height of 18 inches (46 cm) above average plant canopy. Control plants were sprayed in the same manner with the solvent blank.
(§5) The treated plants and control plants were placed in a greenhouse as described above and watered by sub-irrigation to prevent wash-off of the test compounds. After 20-22 days, the condition of the test plants as compared with that of the control plants was determined visually and scored on a scale of 0 to 100 percent where 0 corresponds to no injury and 100 corresponds to complete kill. […]

The subject of a further assay is AVEFA. The description is as above. The class given is in vivo, Avena fatua L. As for the experimental part: as §1, §2, §3, §4, §5
A further assay deals with LOLMU. The assay is described as above. It is filed as in vivo, Lolium multiflorum Lam. The method, then:
as §1, §2, §3, §4
The treated plants and control plants were placed in a greenhouse as described above and watered by sub-irrigation to prevent wash-off of the test compounds. After 20-22 days, the condition of the test plants as compared with that of the control plants was determined visually and scored on a scale of 0 to 100 percent where 0 corresponds to no injury and 100 corresponds to complete kill.
Colby's equation was used to determine the herbicidal effects expected from the mixtures (Colby, S. R. 1967. Calculation of the synergistic and antagonistic response of herbicide combinations. Weeds 15:20-22.).
The following equation was used to calculate the expected activity of mixtures containing two active ingredients, A and B: Expected=A+B−(A×B/100)

Setting [1] is: Compound A Benzyl Ester 5 gai/ha.
The mark [2] stands for this setting: Compound A Benzyl Ester 10 gai/ha.

As to `COc1c(Cl)ccc(-c2nc(C(=O)O)c(Cl)c(N)c2F)c1F` [Compound A Acid, 4-amino-3-chloro-6-(4-chloro-2-fluoro-3-methoxyphenyl)-5-fluoropyridine-2-carboxylic acid], in the assay with CYPDI, the “Visual Weed Control (%) - 20 DAA CYPDI Obs” value is reported as 80% and the “Visual Weed Control (%) - 22 DAA CYPDI Obs” value came out at 60%.
On to `COc1c(Cl)ccc(-c2nc(C(=O)OCc3ccccc3)c(Cl)c(N)c2F)c1F` [Compound A Benzyl Ester, benzyl ester of 4-amino-3-chloro-5-fluoro-6-(4-chloro-2-fluoro-3-methoxy-phenyl)pyridine-2-carboxylic acid], for which the “Visual Weed Control (%) - 21 DAA ALOMY Obs” value with ALOMY (setting [1]) and in the assay on ALOMY (setting [2]) was 0% in each case. The “Visual Weed Control (%) - 21 DAA AVEFA Obs” value in the assay with AVEFA (setting [1]) and in the assay on AVEFA (setting [2]) was 0% each time. For the same compound, the “Visual Weed Control (%) - 21 DAA LOLMU Obs” value in the assay with LOLMU (setting [1]) and in the assay on LOLMU (setting [2]) was 0% each time.
